The values that follow come from patent US11473088B2, “Method of treating cancer and method of sensitizing cancer cells to the action of chemotherapeutic agents via growth hormone receptor antagonists or knock down” (Ohio University, priority 2016, dated 2022).

What all share (assay type): cell-based, human
The test system of test [1] is MALME-3M cells. In words: Cell proliferation (resazurin) assay. The settings on record: 48 hr. On the procedure: For hGH treatment, 16 hours after seeding (or 24 hours post-transfection), the cells were serum-starved for 2 hours in serum-free growth media, and hGH (phosphate buffered saline was used as control where applicable) was added at the noted concentrations (0-, 5-, 50-, and 150 ng/ml). Cells were subsequently incubated for 24 hours before evaluating RNA levels. Recombinant hGH was purchased from Antibodies Online (#ABIN2017921, Atlanta, Ga.).
On the other hand, a pronounced drop in proliferation levels in all the cell lines was seen when GHR was knocked down. […] Cell proliferation was estimated using resazurin-based metabolic assay. […] Averages of at least four independent experiments performed in quadruplicate were taken [*, p<0.05, Students t-test]. The results may indicate that human melanoma cells utilize GH-GHR interaction to drive aggressive tumor phenotypes.
To determine this, and referring now to FIGS. 35A-35D, changes in amounts of calcein retained inside cells following treatment with calcein-AM ester was analyzed by the fluorescence readout from intracellular calcein. Increased abundance of transporter pumps is reflected by decreased levels of intracellular calcein. […] Assays were performed 48 hr. post-transfection with either scr-siRNA or GHR-siRNA. […] SK-MEL-28 (FIG. 35C) and MALME-3M (FIG. 35D) cells were exposed to DMSO (vehicle), or 10 um cisplatin (Cis), or 5 nM paclitaxel (Pac) for 24 hr. Treatments were done 48 hr. post-transfection with either scr-siRNA (scr) or GHR-siRNA (GHR). Mean of three independent experiments performed in triplicate was taken. [*, p<0.05, Students t test, n=3]

Test [2] has as its system SK-MEL-5 cells. In words: Cell proliferation (resazurin) assay. Conditions: 48 hr.
For test [3], the system named is MALME-3M cells. In words: Phosphorylation of intracellular signaling intermediates by WB. As to the method: (§1) Briefly, cell lysates were separated by SDS-PAGE and transferred to nitrocellulose membrane by a wet-transfer method at 70 mA over 14 hours at 4° C. and blocked with 5% non-fat dry milk (NFDM) or 5% bovine serum albumin (BSA) in 1× TBS-T (Tris buffered saline, […] with 0.1% Triton-X100) for 12-16 hours at 4° C. with gentle rocking. Membranes were then incubated with primary antibody (at the specific dilutions cited below) for 12-16 hours at 4° C. with gentle rocking. Membranes were then washed for 5 min. 3 times with 1× TBS-T and incubated with corresponding secondary antibodies (at the specific dilutions cited below) for 2 hours at 25° C. Membranes were then washed for 5 min. 4 times with 1× TBS-T, treated with West Femto Chemiluminiscence detection reagents (Thermo Fisher Scientific), and the chemiluminiscence signal was captured using a GelDoc (Biorad) fluorescence reader. Densitometric analysis of the blots was performed by measured band-intensity from the area-under-curve using ImageJ software.
(§2) GH-GHR action regulates phosphorylation states of intracellular signaling intermediates in human melanoma cells: In order to assess the effects of GHR-KD on the activation states of GH regulated shared oncogenic signaling pathways, scr-siRNA or GHR-siRNA transfected human melanoma cells, at 60 hours post-transfection, were treated with 50 ng/ml hGH for 20 minutes, and phosphorylation levels of intracellular signaling intermediates were analyzed by WB. Results are described below, and shown in FIGS. 9A-9I, 10A-10L, and 11A-11I. For the results described and shown in FIGS. 9A-I, SK-MEL-28 cells, 24 hr post-transfection with either scramble (scr)-siRNA or GHR-siRNA were treated for ten mins with GH and lysed as described. WB was performed using appropriate antibodies. Densitometry analyses of individual blots was performed using Image) software and the ratio of phosphorylated vs. total protein levels against untreated scr-siRNA transfected controls. Overall, excess GH increased while GHR-KD decreased phosphorylation states. […] In all cases, […]] Blots from individual experiments were quantified and the mean of three blots per antibody was taken. Protein levels were normalized against expression of β-actin. [*, p<0.05, Students t test, n=3]. And, for the results described and shown in FIGS. 11A-11I, WB was performed using appropriate antibodies. Densitometry analyses of individual blots was performed using ImageJ software and the ratio of phosphorylated vs. total protein levels against untreated scr-siRNA transfected controls. Overall, excess GH increased while GHR-KD decreased phosphorylation states. Blots from individual experiments were quantified and the mean of three blots per antibody was taken. Protein levels were normalized against expression of β-actin. [*, p<0.05, Students t test, n=3]

The test system of test [4] is SK-MEL-5 cells. Described as above. As to the method: as §1, §2
The subject of test [5] is SK-MEL-28 cells. The description is as above. As to the method:
as §1, §2

Take “hGH: Recombinant human growth hormone, Antibodies Online #ABIN2017921”: in test [1] (50 ng/ml hGH), the “Cell proliferation induced by hGH-excess (increase)” value turned out to be 248%. In test [1] (150 ng/mL hGH), the increase in proliferation entry is reported as “more than 300%”. Further, the “Cell proliferation induced by hGH-excess (increase)” value in test [2] (50 ng/ml hGH) amounted to 10%. Further, the increase in proliferation in test [2] (150 ng/mL hGH) is recorded as 22%. Further, the “increase in GH-induced phosphorylation of SRC” value in test [3] was 1.7 fold. Besides, in test [3] (50 ng/ml hGH), the STAT5 phosphorylation increased stood at 5.8 fold, the “increase in STAT1 phosphorylation level” value was 2.2 fold and the “increase in STAT3 phosphorylation level” value stood at 11.9 fold. For the same substance, in test [4], the “ERK1/2 levels upregulated by GH (increase)” value was 5 fold and the “increase in GH-induced phosphorylation of JAK2” value is given as 1.7 fold. In test [4] (50 ng/ml hGH), the “increase of AKT phosphorylation level” value was “up to 4 fold” and the “increase of mTOR phosphorylation level” value is reported as at most 15 fold. Besides, in test [5], the “increase in GH-induced phosphorylation of JAK2” value is reported as 6.1 fold and the “increase in GH-induced phosphorylation of SRC” value is 3.5 fold. In test [5] (50 ng/ml hGH), the STAT5 phosphorylation increased is 4.1 fold, the “increase in STAT1 phosphorylation level” value is listed as 2.4 fold and the “increase in STAT3 phosphorylation level” value turned out to be 1.9 fold.
